{
  "source": "patent US8192854B2",
  "about": "“Microbial fuel cell treatment of ethanol fermentation process water” (priority 2009, dated 2012)",
  "tested_on": "inhibitor-consuming microbial consortium in a microbial fuel cell (MFC-A)",
  "test": "Effect of inhibitor concentration on electricity production, air-cathode MFC",
  "details": "0.1 g/L to 2 g/L (20.8 mM)",
  "procedure": "After confirmation of electricity production from individual inhibitor molecules, the effect of inhibitor concentration on their removal and electricity production was studied. The experiments were conducted by adding each of the substrates individually, at the various concentrations to study substrate inhibition. From day 51 to 62, HB was used as the energy source for the MFC at concentrations from 0.1 to 1 g/L. From day 63 to day 82, 2-furfural was used as the energy source at a concentration from 0.05 to 2 g/L. From day 83 to day 101, VA was used as the substrate from 0.05 to 4 g/L, followed by use of HMF as substrate from day 129 to day 150 at a concentration from 0.2 to 2 g/L. The MFC was operated with 2-furfural as the substrate between day 102 to 128. Effect of acetate was studied in MFC-B up to a concentration of 10 g/L. The voltage output was monitored at each concentration for a period of up to five days. The effect of 2-furfural on electricity production was studied at a concentration from 0.1 g/L to 2 g/L (20.8 mM) using an air-cathode MFC. […] It should be noted that the substrate utilization was limited by the cathode side in an air-cathode MFC used in this study. […] The effect of acetate concentration was also studied in a different MFC (MFC-B) using a consortium enriched on acetate.",
  "data": [
    {"smiles": "O=Cc1ccco1", "note": "[2-furfural]", "values": [
      {"measurement": "inhibition of electricity production", "result": "No inhibition"}
    ]}
  ]
}
